From US7250304B2, “Functional assay of high-density lipoprotein” (The Regents of the University of California, priority 2000, dated 2007)
Read-outs that look alike come from different tables or passages of the source.

Legend:
[1] = tested on: human artery wall cell cocultures; test: LDL oxidation by human artery wall cell cocultures (lipid hydroperoxides); assay type: cell-based
Protocol: (§1) The wells of the microtiter plates were treated with 0.1% gelatin at 37° C. overnight. HASMC were added at a confluent density of 1×10^5 cells/cm^2. Cells were cultured for 2 d at which time they had covered the entire surface of the well and had produced a substantial amount of extracellular matrix. HAEC were subsequently added at 2×10^5 cells/cm^2 and were allowed to grow forming a complete monolayer of confluent HAEC in 2 d. In all experiments, HAEC and autologous HASMC (from the same donor) were used at passage levels of four to six.
(§2) In general, the cocultures were treated with native LDL (250 μg/ml) in the absence or presence of HDL for 8 h. The supernatants were collected and used for determination of lipid hydroperoxide levels. The cocultures were subsequently washed and fresh culture medium 199 (M199) without any additions was added and incubated for an additional 8 hrs. This allowed the collection of monocyte chemotactic activity released by the cells as a result of stimulation by the oxidized LDL. At the end of incubation, the supernatants were collected from cocultures, diluted 40-fold, and assayed for monocyte chemotactic activity. Briefly, the supernatant was added to a standard Neuroprobe chamber (NeuroProbe, Cabin John, Md.), with monocytes added to the top. The chamber was incubated for 60 min at 37° C. After the incubation, the chamber was disassembled and the nonmigrated monocytes were wiped off. The membrane was then air dried and fixed with 1% glutaraldehyde and stained with 0.1% Crystal Violet dye. The number of migrated monocytes was determined microscopically and expressed as the mean±SD of 12 standardized high power fields counted in quadruple wells.
Statistical significance was determined by model 1 ANOVA. […] Significance is defined as p<0.05.
Human artery wall cocultures were preincubated with ETYA at a concentration of 10^−8 mol/L or with cinnamyl-3,4-dihydroxy-α-cyanocynamate (CDC, from Biomol) at a concentration of 10^−8 mol/L in M199 containing 10% LPDS for 30 min. The cocultures were then washed and LDL was added at 250 μg/ml and incubated for 8 hrs.

[2] = tested on: human artery wall cell cocultures; test: Monocyte chemotaxis assay on coculture conditioned medium; assay type: cell-based
Protocol: as §1
Monocytes were isolated using a modification of the Recalde method as previously described (Fogelman et al. (1988) J. Lipid Res. 29: 1243-1247) from the blood of normal volunteers after obtaining written consent under a protocol approved by the human research subject protection committee of the University of California, Los Angeles.
as §2

HAEC monolayers = test: Monocyte adhesion assay; assay type: cell-based, human; conditions: LDL 1 mg/ml incubated with apo A-I 100 μg/ml 2 hrs, re-isolated
Protocol: In brief, HAEC monolayers, in 48-well tissue culture plates were incubated with the desired LDL or phospholipid for 4 hrs at 37° C. as described (Watson et al. (1995) J. Clin. Invest. 96: 2882-2891). After washing, a suspension of human peripheral blood monocytes was added and incubated for 10 min. The loosely adherent monocytes were then washed away, the monolayers were fixed and the number of adherent monocytes counted in 9 high power microscopic fields.
Freshly isolated LDL (250 μg) was incubated with pure 13(S)-HPODE (1.0 μg) in 10% LPDS in M 199 for 4 hrs at 37° C. with gentle mixing. LDL was re-isolated by centrifugation and was incubated with monolayers of human aortic endothelial cells. […] The endothelial monolayer was washed after each time point and a monocyte suspension was added, incubated, washed, and the number of adherent monocytes determined.
Freshly isolated LDL (250 μg) was incubated with 10 units of pure soybean lipoxygenase bound to sepharose beads for 4 hrs at 37° C. with gentle mixing. […] The endothelial monolayer was washed after each time point and monocyte adhesion determined.
Blood samples were collected from patients referred to the cardiac catheterization laboratory at The Center for Health Sciences at the University of California, Los Angeles. […] The HDL-Ox-PAPC mixture was then added to endothelial monolayers and monocyte binding was determined.

humans = test: Infusion of apo A-I into humans, LDL isolated and tested on human artery wall cocultures; assay type: in vivo
paraoxonase [3] = conditions: mice, six hours after injection
paraoxonase [4] = conditions: humans, six hours after the infusion vs two hours before
Protocol: After obtaining written informed consent and with IRB approval from St Bartholomew's and the Royal London School of Medicine and Dentistry, apo A-I/phosphotidylcholine discs were infused at a dose of 40 mg apo A-I /kg of body weight over four hours using the materials and protocol described by Nanjee et al (Nanjee et al. (1999) Arterioscler. Thromb. Vascul. Biol. 19: 979-989; Nanjee et al. (1996) Arteroscler. Thromb. Vascul. Biol. 16: 1203-1214) into six healthy male subjects. […] Plasma was prepared 2 hrs before and 6 hrs following the infusion, was cryopreserved as described (Havel et al. (1955) J. Clin. Invest. 43: 1345-1353) and LDL was isolated by FPLC in the authors' lab in Los Angeles before the experiments. LDL islated from plasma according to this protocol functions in a manner that is indistinguishable from freshly isolated LDL in vitro and in vivo (Rumsey et al. (1994) J. Lipid Res. 35: 1592-1598).
Paraoxonase (PON) activity was measured as previously described (Gan et al. (1991) Drug Metab. Dispos. 19: 100-106). Statistical significance was determined by model 1 ANOVA. […] Significance is defined as p<0.05.

C57BL/6 mice = test: Injection into mice, LDL isolated and tested on human artery wall cocultures

apo A-I: Human apo A-I from Sigma, major apolipoprotein of HDL; infused into humans as apo A-I/phosphatidylcholine discs
oxidation by artery wall cells of mouse LDL after apo A-I treatment ([1]; LDL from C57BL/6 and C3H/HeJ mice on chow, incubated in vitro with human apo A-I 100 μg/ml): rendered resistant to oxidation
protection of LDL against oxidation on co-incubation ([1]; apo A-I 50 μg/ml co-incubated with cocultures and LDL 250 μg/ml): did not protect the LDL against oxidation
ability of pretreated artery wall cocultures to oxidize LDL ([1]; cocultures incubated 8 hrs with agent, agent removed before LDL 250 μg/ml): not able to oxidize the LDL
oxidation by artery wall cells of LDL pre-incubated with the agent ([1]; human LDL incubated with agent, re-isolated, then cocultures 8 hrs): rendered the LDL resistant to oxidation
LDL-induced monocyte chemotaxis in pretreated cocultures ([2]; cocultures incubated 8 hrs with agent, agent removed before LDL): monocyte chemotaxis was prevented
LDL-induced monocyte chemotactic activity of LDL pre-incubated with the agent ([2]; human LDL incubated with agent, re-isolated, then cocultures): prevented LDL-induced monocyte chemotaxis
monocyte adherence induced by LDL after A-I (HAEC monolayers): did not stimulate monocyte adherence
resistance of human LDL to oxidation by artery wall cells after infusion (humans; apo A-I/phosphatidylcholine discs 40 mg apo A-I/kg over 4 hrs, six hours after vs two hours before, six out of six subjects): much more resistant to oxidation
time after infusion at which LDL was rendered resistant to oxidation (humans; humans): ≤ 6 h
PON activity in plasma and HDL, increase (paraoxonase [3]): approximately 20%
PON activity in plasma and HDL, increase (paraoxonase [4]): approximately 20%
time after injection at which LDL was rendered resistant to oxidation (C57BL/6 mice): ≤ 3 h
persistence of LDL resistance to oxidation (C57BL/6 mice; 100 μg injected): up to 24 hours
